Data published in patent US4719200A, “Amino acid derivatives and antihypertensive drugs containing the same” (Ajinomoto Co., Inc., priority 1984, dated 1988).
Peptide text beside a SMILES is read from it. * marks the point of attachment. Boc = CC(C)(C)OC(=O)*; Propionyl = CCC(=O)*; Bz = O=C(c1ccccc1)*

Test system: spontaneously hypertensive rates (SHR rats)
Assay: Measurement of change in blood pressure (systolic, indirect, conscious rats) after one oral dose
Format: in vivo, rat
Conditions: for Δ Blood Pressure (systolic): lowest value minus value before administration; for Systolic Blood Pressure, Lowest Value: after administration
Procedure: The antihypertensive activities of the amino acid derivatives as prepared above were determined.
As subject animals, there were used 5 spontaneously hypertensive rates (SHR rats) which had been sufficiently trained and confirmed to be hypertensive (mode, the body weight of 400 g) per a sample.
As an instrument for measuring the blood pressure there was used Programmed Electro-Sphygmomanometer PE-300 (Narco Co., U.S.A.), and the blood pressure was indirectly measured on conscious rats.
An aqueous solution of a sample (0.05 m mole/kg) was once force-fed into the stomach by means of a […] probe. As a control, the water as deionized was fed to the same animals as above.

[1] = SHR rats, single force-feeding into the stomach, 0.05 m mole/kg
[2] = second table (Examples 25-43), before administration
[3] = SHR rats, 5 per sample, before single force-feeding into the stomach of 0.05 m mole/kg aqueous solution

Compound | Systolic Blood Pressure, Lowest value after administration [1] | Δ Blood Pressure (systolic) [1] | Hrs. After Admin. (of lowest systolic blood pressure value) (second table (Examples 25-43)) | Systolic Blood Pressure, Lowest Value (second table (Examples 25-43)) | Systolic Blood Pressure, Value Before Administration [2] | Δ Blood Pressure (systolic) (second table (Examples 25-43)) | Systolic Blood Pressure, Value Before Administration [3] | Hours after administration (of lowest systolic blood pressure value) [1]
C[C@H](NC(=O)c1ccccc1)C(=O)N1CCC[C@H]1C(=O)N1CCC[C@H]1C(=O)O [Example 13, N-benzoyl-L-alanyl-L-prolyl-L-proline] (Bz-Ala-Pro-Pro-OH) | 177 mm Hg | -43 mm Hg |  |  |  |  |  | 
CCS(=O)(=O)NCC(=O)N1CCC[C@H]1C(=O)N1CCC[C@H]1C(=O)O [Example 39, N--ethanesulfonyl-glycyl-L-prolyl-L-proline] |  |  | 8 h | 215 | 232 | -18 |  | 
C[C@H](NC(=O)c1ccccn1)C(=O)N1CCC[C@H]1C(=O)N1CCC[C@H]1C(=O)O [Example 5, N-picolinoyl-L-alanyl-L-prolyl-L-proline] | 175 mm Hg | -22 mm Hg |  |  |  |  |  | 
CCC(=O)N[C@@H](C)C(=O)N1CCC[C@H]1C(=O)N1CCC[C@H]1C(=O)O [Example 4, N-propionyl-L-alanyl-L-prolyl-L-proline] (Propionyl-Ala-Pro-Pro-OH) | 173 mm Hg | -24 mm Hg |  |  |  |  |  | 
O=C(O)CC[C@H](NC(=O)c1ccccc1)C(=O)N1CCC[C@H]1C(=O)N1CCC[C@H]1C(=O)O [Example 28, N--benzoyl-L-glutamyl-L-prolyl-L-proline] (Bz-Glu-Pro-Pro-OH) |  |  | 8 h | 196 | 235 | -39 |  | 
N-benzylsulfonyl-L-alanyl-L-prolyl-L-proline L-arginine salt [Example 11] | 174 mm Hg | -28 mm Hg |  |  |  |  | 202 mm Hg | 8 h
C[C@H](NC(=O)OC(C)(C)C)C(=O)N1CCC[C@H]1C(=O)N1CCC[C@H]1C(=O)O [Example 16, N-t-butyloxycarbonyl-L-alanyl-L-prolyl-L-proline] (Boc-Ala-Pro-Pro-OH) | 173 mm Hg | -21 mm Hg |  |  |  |  |  | 
C[C@@H](C(=O)N1CCC[C@H]1C(=O)N1CCC[C@H]1C(=O)O)N1C(=O)c2ccccc2C1=O [Example 8, N-phthaloyl-L-alanyl-L prolyl-L-proline] | 207 mm Hg | -18 mm Hg |  |  |  |  | 225 mm Hg | 4 h
N-(benzylthio) thiocarbonyl-L-alanyl-L-prolyl-L-proline L-arginine salt [Example 9] | 191 mm Hg | -25 mm Hg |  |  |  |  | 216 mm Hg | 24 h
N-phenylthiocarbamoyl-L-alanyl-L-prolyl-L-proline L-arginine salt [Example 18] | 211 mm Hg | -13 mm Hg |  |  |  |  | 224 mm Hg | 24 h
N-phenylcarbamoyl-L-alanyl-L-prolyl-L-proline L-arginine salt [Example 17] | 203 mm Hg | -15 mm Hg |  |  |  |  | 218 mm Hg | 24 h
O=C(O)[C@@H]1CCCN1C(=O)[C@@H]1CCCN1C(=O)[C@H](CO)NCc1ccccc1 [Example 29, N--benzyl-L-seryl-L-prolyl-L-proline] |  |  | 8 h | 192 | 214 | -22 |  | 
CCOC(=O)N[C@@H](C)C(=O)N1CCC[C@H]1C(=O)N1CCC[C@H]1C(=O)O [Example 1, N-ethoxycarbonyl-L-alanyl-L-prolyl-L-proline] | 155 mm Hg | -38 mm Hg |  |  |  |  |  | 
CCS(=O)(=O)N[C@@H](CCCNC(=N)N)C(=O)N1CCC[C@H]1C(=O)N1CCC[C@H]1C(=O)O [Example 41, N--ethane sulfonyl-L-arginyl-L-prolyl-L-proline] |  |  | 7 h | 185 | 204 | -19 |  | 
CCS(=O)(=O)N[C@@H](C)C(=O)N1CCC[C@H]1C(=O)N1CCC[C@H]1C(=O)O [Example 12, N-ethanesulfonyl-L-alanyl-L prolyl-L-proline] | 159 mm Hg | -45 mm Hg |  |  |  |  | 204 mm Hg | 24 h
CCOC(=O)N[C@@H](Cc1ccccc1)C(=O)N1CCC[C@H]1C(=O)N1CCC[C@H]1C(=O)O.[Na] [Example 31, N--ethoxycarbonyl-L-phenylalanyl-L-prolyl-L-proline sodium salt] |  |  | 24 h | 199 | 216 | -17 |  | 
CCS(=O)(=O)N[C@@H](CCSC)C(=O)N1CCC[C@H]1C(=O)N1CCC[C@H]1C(=O)O [Example 43, N--ethane sulfonyl-L-methionyl-L-prolyl-L-proline] |  |  | 8 h | 198 | 229 | -31 |  | 
CCOC(=O)NCC(=O)N1CCC[C@H]1C(=O)N1CCC[C@H]1C(=O)O.[Na] [Example 32, N--ethoxycarbonyl-glycyl-L-prolyl-L-proline sodium salt] |  |  | 8 h | 193 | 215 | -22 |  | 
CCS(=O)(=O)N[C@@H](CCC(=O)O)C(=O)N1CCC[C@H]1C(=O)N1CCC[C@H]1C(=O)O [Example 40, N--ethane sulfonyl-L-glutamyl-L-prolyl-L proline] |  |  | 8 h | 202 | 220 | -18 |  | 
CCOC(=O)N[C@@H](CO)C(=O)N1CCC[C@H]1C(=O)N1CCC[C@H]1C(=O)O [Example 35, N--Ethoxycarbonyl-L-seryl-L-prolyl-L-proline] |  |  | 8 h | 195 | 220 | -25 |  | 
CCS(=O)(=O)N[C@@H](Cc1ccccc1)C(=O)N1CCC[C@H]1C(=O)N1CCC[C@H]1C(=O)O [Example 38, N--ethanesulfonyl-L-phenylalanyl-L-prolyl-L-proline] |  |  | 8 h | 201 | 235 | -34 |  | 
CCOC(=O)N[C@@H](CCSC)C(=O)N1CCC[C@H]1C(=O)N1CCC[C@H]1C(=O)[O-].[Na+] [Example 36, N--Ethoxycarbonyl-L-methionyl-L-prolyl-L proline sodium salt] |  |  | 8 h | 206 | 223 | -17 |  | 
O=C(N[C@@H](Cc1ccccc1)C(=O)N1CCC[C@H]1C(=O)N1CCC[C@H]1C(=O)O)c1ccccc1.[Na] [Example 26, N--Benzoyl-L-phenylalanyl-L-prolyl-L-proline sodium salt] (Bz-Phe-Pro-Pro-OH) |  |  | 8 h | 194 | 228 | -34 |  | 
CC(=O)N[C@@H](C)C(=O)N1CCC[C@H]1C(=O)N1CCC[C@H]1C(=O)O [Example 3, N-acetyl-L-alanyl-L-prolyl-L-proline] (Ac-Ala-Pro-Pro-OH) | 160 mm Hg | -41 mm Hg |  |  |  |  |  | 
